{"source": "patent US20240299300A1", "about": "“LIPOSOME VITAMIN C PREPARATION” (priority 2023, published 2024)", "tested_on": "H9 cells, a human T-cell line", "test": "Vitamin C uptake in H9 T-cells", "type": "cell-based", "conditions": "50 μM", "experimental": "At the times indicated in FIG. 13, cells were harvested and measured for vitamin C and protein content. The cellular vitamin C levels of the cells were measured.", "data": [{"smiles": "O=C1O[C@H]([C@@H](O)CO)C(O)=C1O", "note": "[nonliposomal vitamin C, ascorbic acid]", "values": [{"measurement": "cellular vitamin C level (peak)", "setting": "approximately two hours", "result": 20, "unit": "nmol/mg protein"}, {"measurement": "cellular vitamin C level", "setting": "fifteen minutes", "result": "6±1.4", "unit": "nmol/mg protein"}]}]}
